From US5599813A, “Thiazolopyrimidine derivatives” (Daiichi Pharmaceutical Co., Ltd., priority 1993, dated 1997)
Where a name gives a salt, the structure may show the parent alone.

Tested on: Chorioallantoic membrance (CAM)
Test: CAM angiogenesis Inhibition Test
Type: in vivo, chicken (4 to 5 day old fertilized egg)
Conditions: CAM of fertilized chicken egg, two days after; for Inhibition activity (%): 10 μl/egg in physiological saline or DMSO, 37.6° C., control vascularization settled as 100; for Judgement: class of inhibition activity, significance by Student's t-test, 2880 min
Description: Test was carried out by […]-Folkman's method (Nature, 297, 307 (1982)), but partially modified as described in Exp. Path. 30, 143 (1986). Chorioallantoic membrance (CAM) of 4 to 5 day old fertilized chicken egg (Babucock) was exposed. […] Vascularization (angiogenesis) of the control group was settled as 100 and the degree to the test sample was calcurated and expressed as inhibition activity. The significance of activity was determined by Student's t-test and the case over 50 % was indicated to + and the case below 50 % to i as shown in the following table.

Cl.O=C(Nc1cc(Cl)cc(Cl)c1)C1=C(C2CCC2)N2CCCN=C2S1 [Example 2, N-(3,5-Dichlorophenyl)-3-cyclobutyl-6,7-dihydro-5H-thiazolo[3,2-a]pyrimidine-2-carboxamide hydrochloride]
Inhibition activity (%): 82.5% | Judgement: + (over 50 %)

CCCCCCCCc1ccc(NC(=O)C2=C(C3CCC3)N3CCCN=C3S2)cc1.Cl [Example 8, N-(4-Octylphenyl)-3-cyclobutyl-6,7-dihydro-5H-thiazolo[3,2-a]pyrimidine-2-carboxamide hydrochloride]
Inhibition activity (%): 82.7% | Judgement: + (over 50 %)

Cl.O=C(Nc1cc(Cl)cc(Cl)c1)C1=C(C2CCCC2)N2CCCN=C2S1 [Example 9, N-(3,5-Dichlorophenyl)-3-cyclopentyl-6,7-dihydro-5H-thiazolo[3,2-a]pyrimidine-2-carboxamide hydrochloride]
Inhibition activity (%): 37.2%

CCCC1=C(C(=O)Nc2cc(Cl)cc(Cl)c2)SC2=NCCCN21 [Example 13, N-(3,5-dichlorophenyl)-3-propyl-6,7-dihydro-5H-thiazolo[3,2a-]pyrimidine-2-carboxamide hydrochloride]
Inhibition activity (%): 76.5% | Judgement: + (over 50 %)

CCCC1=C(C(=O)Nc2ccc(C(C)(C)C)cc2)SC2=NCCCN21.Cl [Example 16, N-(4-tert-Butylphenyl)-3-propyl-6,7-dihydro-5H-thiazolo[3,2-a]pyrimidine-2-carboxamide hydrochloride]
Inhibition activity (%): 57.1% | Judgement: + (over 50 %)

CCCCCCCCc1ccc(NC(=O)C2=C(CCC)N3CCCN=C3S2)cc1.Cl [Example 19, N-(4-n-Octylphenyl)-3-propyl-6,7-dihydro-5H-thiazolo[3,2-a]-pyrimidine-2-carboxamide hydrochloride]
Inhibition activity (%): 69.3% | Judgement: + (over 50 %)

CCCCC1=C(C(=O)Nc2cc(F)cc(F)c2)SC2=NCCCN21.Cl [Example 39, N-(3,5-Difluorophenyl)-3-butyl-6,7-dihydro-5H-thiazolo[3,2-a]pyrimidine-2-carboxamide hydrochloride]
Inhibition activity (%): 32.3%

CCCCCCCCc1ccc(NC(=O)C2=C(CCC#N)N3CCCN=C3S2)cc1.Cl [Example 82, N-(4-Octylphenyl)-3-(2-cyanoethyl)-6,7-dihydro-5H-thiazolo-[3,2-a]pyrimidine-2-carboxamide hydrochloride]
Inhibition activity (%): 88.4% | Judgement: + (over 50 %)

CCCC1=C(C(=O)Nc2ccc(SCCCCCC(=O)O)cc2)SC2=NCCCN21.Cl [Example 90, N-[4-(5-Carboxypentylthio)phenyl]-3-propyl-6,7-dihydro-5H-thiazolo[3,2-a]pyrimidine-2-carboxamide hydrochloride]
Inhibition activity (%): 93.2% | Judgement: + (over 50 %)

O=C(O)COC1=C(C(=O)Nc2cc(Cl)cc(Cl)c2)SC2=NCCCN21 [Example 114, N-(3,5-Dichlorophenyl)-3-carboxymethyloxy-6,7-dihydro-5H-thiazolo[3,2-a]pyrimidine-2-carboxamide]
Inhibition activity (%): 94.3% | Judgement: + (over 50 %)
